In brackets after ≈: the same amount, converted by molar mass.
Assays:
HSV-1 (VR-3 strain) = assay: Anti-HSV-1 activity (plaque formation inhibition in human fetal lung fibroblasts); assay type: cell-based, herpes simplex virus type 1; settings: Human alphaherpesvirus 1, Fibroblast, 50% inhibition of plaque formation, human fibroblasts derived from fetal lungs, 2-3 days at 37° C., read-out: ED50 HSV-1
Description: (§1) 1. Human fibroblasts derived from fetal lungs were subjected to subculturing in Eagle MEM supplemented with 10% semi-fetal calf serum (Mitsubishi Chemical Corporation) at a 1:2-4 split every 4 days. 2. A suspension of cells obtained by splitting their parent cells (1:2) was seeded in a 12-well multi-plate (2 ml/well), followed by culturing for 4-5 days at 37° C. in a CO2 -incubator. 3. The culture liquid was discarded, and Hanks' MEM (250 μl) containing 50-150 PFU of VR-3 strain of HSV-1 or MS strain of HSV-2 was inoculated, and the virus was allowed to be adsorbed for 30 minutes at 37° C. Thereafter, the viral liquid was discarded. 4. A 2.5% serum-added Eagle MEM containing a test compound and 0.8% methylcellulose was added and the resultant mixture was incubated in a CO2 -incubator for 2-3 days at 37° C. Generally, a test compound is diluted in serial 1/2 log10, and the maximal concentration is 10 μg/ml. 5. The culture liquid was discarded, and the cells were stained with a 0.5% crystal violet solution. Under a stereoscopic light microscope, the number of plaques in each well was counted. Using the equation below, the plaque formation inhibitory ratio (percent inhibition) was obtained. […]

HSV-2 (MS strain) = assay: Anti-HSV-2 activity (plaque formation inhibition in human fetal lung fibroblasts); assay type: cell-based, herpes simplex virus type 2; settings: Human alphaherpesvirus 2, Fibroblast, 50% inhibition of plaque formation, human fibroblasts derived from fetal lungs, 2-3 days at 37° C., read-out: ED50 HSV-2
Description: as §1

VZV (Oka strain) = assay: Anti-Varicella Zoster Virus (VZV) activity (plaque formation inhibition in human fetal lung fibroblasts); assay type: cell-based; settings: Human alphaherpesvirus 3, Fibroblast, read-out: ED50 VZV
Description: (§2) 1. Human fibroblasts derived from fetal lungs were subjected to subculturing in Eagle MEM supplemented with 10% semi-fetal calf serum (Mitsubishi Chemical Corporation) at a 1:2-4 split every 4 days.
2. A suspension of cells obtained by splitting their parent cells (1:2) was seeded in a 12-well multi-plate (2 ml/well), followed by culturing for 4-5 days at 37° C. in a CO2 -incubator.
3. The culture liquid was discarded, and 750 μl of a 5% serum-added Eagle MEM containing 50-100 PFU of Oka strain of VZV was inoculated, and the virus was allowed to be adsorbed for 1 hour at 37° C.
4. Without removing the virus, 750 μl of Hanks' MEM containing the test compound was added, and the resultant mixture was incubated in a CO2 -incubator at 37° C. Generally, a test compound is diluted in serial 1/2 log10, and the maximal concentration is 10 μg/ml.
5. After culturing for 4-5 days, the culture liquid was discarded, and the cells were stained with a 0.5% crystal violet solution. Under a stereoscopic light microscope, the number of plaques in each well was counted. Using the equation used in (1) above, the plaque formation inhibitory ratio was obtained.
6. The plaque formation inhibitory ratio was plotted on a graph with respect to the concentration of the test compound (logarithmic representation).

HCMV (AD-169 strain) = assay: Anti-Human Cytomegalovirus activity (plaque formation inhibition in human fetal lung fibroblasts); assay type: cell-based; settings: Human betaherpesvirus 5, AD169, Fibroblast, 50% inhibition of plaque formation, human fibroblasts derived from fetal lungs, 4 days plus further 4-5 days, read-out: ED50 HCMV
Description: as §2
2. A suspension of cells obtained by splitting their parent cells (1:2) was seeded in a 12-well multi-plate (2 ml/well), followed by culturing for 4 days at 37° C. in a CO2 -incubator.
3. The culture liquid was discarded, and 750 μl of a 5% serum-added Eagle MEM containing 50-100 PFU of AD-169 strain of HCMV was inoculated, and the virus was allowed to be adsorbed for 1 hour at 37° C.
4. Without removing the virus, 750 μl of Hanks' MEM containing the test compound was added, and the resultant mixture was incubated in a CO2 -incubator at 37° C. for 4 days. Generally, a test compound is diluted in serial 1/2 log10, and the maximal concentration is 10 μg/ml.
5. The medium was changed to a fresh 2.5% serum-added Eagle MEM containing 0.8% methylcellulose and the test compound having the same concentration, followed by culturing further for 4-5 days.
6. The culture liquid was discarded, and the cells were stained with May-Gruenwald's-Giemsa (×10). Under a stereoscopic light microscope, the number of plaques in each well was counted. Using the equation used in (1) above, the plaque formation inhibitory ratio was obtained.
7. […]

## Nc1nc(N)c2ncn([C@@H]3S[C@H](CO)[C@@H](O)[C@@H]3O)c2n1 [Ia-β, 9-(4-thio-β-D-arabinofuranosyl)-2,6-diaminopurine]
HSV-1 (VR-3 strain)
  EC50: 0.52 µg/mL (≈ 1.74 µM)
HSV-2 (MS strain)
  EC50: 0.4 µg/mL (≈ 1.34 µM)
VZV (Oka strain)
  EC50: 0.11 µg/mL (≈ 0.369 µM)
HCMV (AD-169 strain)
  EC50: 0.022 µg/mL

## Nc1nc2c(ncn2[C@@H]2S[C@H](CO)[C@@H](O)[C@@H]2O)c(=O)[nH]1 [Ib-β, 9-(4-thio-δ-D-arabinofuranosyl)guanine]
HSV-1 (VR-3 strain)
  EC50: 0.49 µg/mL (≈ 1.64 µM)
HSV-2 (MS strain)
  EC50: 0.59 µg/mL (≈ 1.97 µM)
VZV (Oka strain)
  EC50: 0.11 µg/mL (≈ 0.368 µM)
HCMV (AD-169 strain)
  EC50: 0.011 µg/mL
